Experimental findings from patent US20160195544A1, “METHOD OF DIAGNOSING SEPSIS OR SEPSIS RISK” (UNIVERSITY OF ROCHESTER, priority 2013, published 2016) are described below.

The test system of assay [1] is neutrophils isolated from healthy donors. Put plainly: In vitro stimulation of neutrophils from healthy donors, VLA-3 expression by RT-PCR and flow cytometry. The conditions noted are these: human neutrophils, 1 and 3 hours of stimulation, PMA 20 ng/ml, LPS 100 μg/ml. The assay is classed as cell-based. An excerpt:
Blood was collected from healthy volunteers via antecubital vein puncture in heparin containing vacutainers. Granulocytes and erythrocytes were separated from whole blood by centrifugation through 1-step Polymorphs (Fresenius Kabi Norge AS) density gradient. Remaining erythrocytes were removed by hypotonic lysis, yielding a neutrophil purity of >98%. The Human Research Studies Review Board of the University of Rochester approved this study, and informed consent was obtained in accordance with the Declaration of Helsinki To measure integrin expression, neutrophils were stimulated with PMA (20 ng/ml), TNF-α (20 ng/ml), LPS (100 μg/ml) or fMLP (1 μM for 1 hour or 3 hours in L15 (Leibovitz) medium with glucose at 37° C. temperatures.
Total RNA was prepared from human neutrophils or sorted mouse bone marrow granulocytes using RNeasy Mini Kit (QIAGEN, Valencia, Calif.). Similarly, RNA was reverse transcribed by using murine leukemia virus reverse transcriptase (Life Technologies, Bethesda, Md.), with oligo(dT) as the primer (Invitrogen, San Diego, Calif.). All cDNAs were divided into aliquots and stored at −20° C. until further use. Quantitation of integrins α3 and α2 on human neutrophils and IL-6, IL-β and TNFα mRNA were performed using TaqMan® Gene Expression Assays (Applied Biosystems). […] RQ values were analyzed using software.
On the technique in general: A flow cytometer gives signals particle by particle.

In assay [2] the target is T1, VLA-3 (Mus musculus, UniProt P09055+Q62470).
T1 construct: endogenous in cells; host or cells: neutrophils and other tissues of live mice (C57BL/6; LysM-GFP bone marrow chimeras)
T1 sequence (Q62470 33-1053): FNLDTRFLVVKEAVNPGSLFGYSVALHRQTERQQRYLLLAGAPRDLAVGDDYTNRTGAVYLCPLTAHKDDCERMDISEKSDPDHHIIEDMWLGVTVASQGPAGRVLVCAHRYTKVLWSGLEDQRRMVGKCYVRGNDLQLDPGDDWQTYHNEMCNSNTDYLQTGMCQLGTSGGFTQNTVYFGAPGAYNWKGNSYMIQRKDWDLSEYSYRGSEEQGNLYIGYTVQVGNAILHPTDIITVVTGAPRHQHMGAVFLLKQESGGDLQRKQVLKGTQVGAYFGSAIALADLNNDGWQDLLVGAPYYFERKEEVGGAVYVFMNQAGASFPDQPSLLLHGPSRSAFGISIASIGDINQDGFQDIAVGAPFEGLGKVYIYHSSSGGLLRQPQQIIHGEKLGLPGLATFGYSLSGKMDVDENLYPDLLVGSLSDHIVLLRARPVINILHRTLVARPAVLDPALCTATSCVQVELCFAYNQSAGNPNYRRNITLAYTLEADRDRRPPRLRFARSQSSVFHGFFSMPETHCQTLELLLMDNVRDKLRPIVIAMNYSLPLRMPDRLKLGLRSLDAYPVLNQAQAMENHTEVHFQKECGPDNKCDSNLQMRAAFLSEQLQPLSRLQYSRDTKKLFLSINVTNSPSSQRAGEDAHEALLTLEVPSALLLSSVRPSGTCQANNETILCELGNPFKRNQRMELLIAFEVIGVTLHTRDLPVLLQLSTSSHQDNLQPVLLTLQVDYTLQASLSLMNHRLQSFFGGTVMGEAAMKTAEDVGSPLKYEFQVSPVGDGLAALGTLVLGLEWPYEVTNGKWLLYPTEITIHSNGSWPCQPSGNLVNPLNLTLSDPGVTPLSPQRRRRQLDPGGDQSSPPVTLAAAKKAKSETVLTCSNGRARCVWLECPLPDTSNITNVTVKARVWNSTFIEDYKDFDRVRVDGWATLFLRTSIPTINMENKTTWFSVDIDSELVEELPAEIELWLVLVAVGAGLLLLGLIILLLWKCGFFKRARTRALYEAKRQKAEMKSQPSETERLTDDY
T1 sequence (P09055 21-798): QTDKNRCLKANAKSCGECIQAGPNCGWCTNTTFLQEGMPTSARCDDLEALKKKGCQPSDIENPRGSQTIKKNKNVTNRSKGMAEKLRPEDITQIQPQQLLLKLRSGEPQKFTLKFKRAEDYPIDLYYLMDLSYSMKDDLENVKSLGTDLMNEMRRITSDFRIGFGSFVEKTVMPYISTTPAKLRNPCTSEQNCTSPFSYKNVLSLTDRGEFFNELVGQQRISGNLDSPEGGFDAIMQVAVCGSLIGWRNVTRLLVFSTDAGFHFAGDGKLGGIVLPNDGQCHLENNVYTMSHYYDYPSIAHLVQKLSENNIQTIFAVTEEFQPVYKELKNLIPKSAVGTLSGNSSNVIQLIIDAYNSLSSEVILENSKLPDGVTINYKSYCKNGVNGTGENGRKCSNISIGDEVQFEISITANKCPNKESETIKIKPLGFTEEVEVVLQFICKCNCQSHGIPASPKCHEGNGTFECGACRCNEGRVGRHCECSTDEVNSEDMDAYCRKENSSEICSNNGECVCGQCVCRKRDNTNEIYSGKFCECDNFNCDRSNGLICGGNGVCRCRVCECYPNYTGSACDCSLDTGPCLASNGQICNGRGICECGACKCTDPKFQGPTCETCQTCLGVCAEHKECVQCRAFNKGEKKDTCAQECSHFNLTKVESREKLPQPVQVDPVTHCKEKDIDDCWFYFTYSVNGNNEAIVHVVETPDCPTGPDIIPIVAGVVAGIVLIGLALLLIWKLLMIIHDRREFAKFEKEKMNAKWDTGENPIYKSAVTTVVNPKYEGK
Put plainly: CLP (cecal ligation and puncture) sepsis mouse model, VLA-3 blocking with peptide. It counts as in vivo. The method, then: (§1) Endotoxemia and CLP were performed according to Animal Resource Protocol approved by the Committee at University of Rochester. For endotoxemia assay, 8-12-wk-old C57BL/6 (Harlan) male mice were weighed and LPS (E. coli […], Sigma-Aldrich) was administered by intra peritoneal (IP) injection to achieve LD90 mortality rate. CLP survival surgery was performed under isofluorane inhalation anesthesia. Caecum was ligated and punctured through and through with a 21-gauge needle. All the mice were resuscitated with 1 ml lactated Ringers injected subcutaneously. For VLA-3 blocking experiments, LXY2 (88 μg) (CysD-AspD-Gly-Tyr(3-NO2)-Gly-4Hyp-Asn-CysD) where the amino acids may be D amino acids, or control (88 μg) (Peptide International) peptides were administered intravenously (IV) at 2 hours and by IP at 8 hours, 32 hours following CLP or endotoxemia. Survival was monitored for 120 hours.
For flow cytometry measurement of the integrin expression on neutrophil, bone marrow (BM), peritoneal Lavage (PL), peripheral blood and lungs were isolated from naïve and septic mice at the indicated time points and subsequently single-cell suspensions were prepared. RBC lysis was performed using ACK lysing buffer (Invitrogen, San Diego, Calif.). The Fc receptors were blocked with unconjugated anti-CD16/32 (eBioscience, San Diego, Calif.) for 30 minutes. Samples were stained with Alexafluor 488 labeled anti-Gr1 (Invitrogen). Allophycocyanin (APC) labeled Ly6G (BD Biosciences), PerCp-Cy5.5 labeled anti-CD11b (eBioscience, San Diego, Calif.,), fluorescein isothiocyanate (FITC) anti-F4/80 (eBioscience, San Diego, Calif., USA), purified goat anti-mouse integrin α3/CD49c (R&D Systems), PE-anti-mouse integrin α2/CD49b, α5/CD49e, αv/CD51, APC-anti-mouse integrin α6/CD49f and PE conjugated donkey anti-goat IgG (Santa Cruz) antibodies were used. All samples were fixed with 3.7% formaldehyde and collected on FACS Calliber flow cytometer (BD Biosciences, San Diego, Calif.). Data were analyzed using Flow Jo software.
Peritoneal lavage was collected after injection of 10 ml PBS into the peritoneum. […] Colony count for each group was expressed as CFU/ml.
Serum from individual mice was collected at the indicated time points and the level of IL-6 was determined by standard sandwich ELISA protocol. […] The color reaction was developed using TMB (Thermo Scientific, Rockford, Ill.) and measured with an ELISA reader (Kinetic microplate reader; Molecular Devices) at 450 nm.
All values are expressed as the mean±SEM. Data from human samples were analyzed by one-way ANOVA. Data from murine experiments were analyzed by paired non-parametric t-test (Wilcoxon test). Survival curves were analyzed by the Kaplan-Meyer log-rank test. […]

The target of assay [3] is T1, VLA-3. Put plainly: LPS-induced endotoxemia mouse model, VLA-3 blocking with peptide. It counts as in vivo. The conditions noted are these: endotoxemia mice, 8 hours, 88 μg peptide, vs control peptide. Here is the method: as §1
For flow cytometry measurement of the integrin expression on neutrophil, bone marrow (BM), peritoneal Lavage (PL), peripheral blood and lungs were isolated from naïve and septic mice at the indicated time points and subsequently single-cell suspensions were prepared. RBC lysis was performed using ACK lysing buffer (Invitrogen, San Diego, Calif.). The Fc receptors were blocked with unconjugated anti-CD16/32 (eBioscience, San Diego, Calif.) for 30 minutes. […] Data were analyzed using Flow Jo software.

Assay [4] has as its target T1, VLA-3. As to the kind of experiment: Multiphoton intravital microscopy (MP-IVM) of fMLP-superfused cremaster vessels of LysM-GFP mice. The assay is classed as in vivo. The conditions noted are these: fMLP 1 μM superfusion, 88 μg IV. An excerpt: For MP-IVM of Lysozyme M (LysM)-GFP mice (Faust et al., “Insertion of Enhanced Green Fluorescent Protein Into the Lysozyme Gene Creates Mice With Green Fluorescent Granulocytes and Macrophages,” Blood 96:719-726 (2000), the disclosure of which is incorporated herein by reference in its entirety) in which granulocytes and monocytes express GFP were used. In order to accurately track morphological changes and migration velocities of individual extravasating leukocytes, mixed bone marrow chimera mice were generated using 80% WT and 20% LysM-GFP bone marrow into irradiated WT recipient mice to reduce the density of fluorescent cells during imaging. 8 weeks after bone marrow transfer to the irradiated recipient mice, the mice were then used for in vivo imaging. Cremaster muscle was prepared for imaging as previously described (Sumagin et al., “Leukocyte-Endothelial Cell Interactions are Linked to Vascular Permeability Via ICAM-1-Mediated Signaling,” Am. J. Physiol. Heart Circ. Physiol. 295:H969-H977 (2008), the disclosure of which is incorporated herein by reference in its entirety). Briefly, mice were anesthetized with pentobarbital sodium (65 mg/kg IP) and maintained on isoflorane inhalation anesthesia. The body temperature was maintained by placing the animal on a warming pad set. […] Imaging data were analyzed with velocity software (PerkinElmer).

In assay [5] the target is T1, VLA-3. As to the kind of experiment: Transmission electron microscopy of fMLP-superfused cremaster microvasculature. The conditions noted are these: 88 μg IV. The assay is classed as in vivo. The method, then:
Leukocyte extravasation was first observed on the fMLP-stimulated cremaster venules of LysM-GFP mice by MP-IVM. LXY2 (88 μg) peptide was injected IV when extravasating cells were noticed. The cremaster was then immediately dissected from the body post-euthanization and fixed with 2.5% glutaraldehyde. The tissue was further processed for transmission electron microscopy at the Electron Microscope Research Core at the University of Rochester for transmission electron microscopy.

With `CCCCCCCCCCCCCC(=O)O[C@@H]1[C@@H](C)[C@@]2(O)[C@@H](C=C(CO)C[C@]3(O)C(=O)C(C)=C[C@@H]23)[C@@H]2C(C)(C)[C@]12OC(C)=O` [PMA], the “mRNA level of VLA-3” value in assay [1] (RT-PCR) is “significant increases”. Also, in assay [1] (flow cytometry), the “protein (cell-surface) level of VLA-3” value is given as “significant increases”.

Turning to “CysD-AspD-Gly-Tyr(3-NO2)-Gly-4Hyp-Asn-CysD [LXY2]”, in assay [2] (CLP and endotoxemia mice, 88 μg IV at 2 hours and IP at 8 and 32 hours, survival monitored 120 hours, Kaplan-Meyer log-rank), the “survival / sepsis lethality” value is recorded as “protected mice from sepsis lethality”. In assay [2] (mice with CLP-induced sepsis, 8 hours after CLP, 88 μg/dose IV, vs control peptide), the “number of tissue-infiltrating neutrophils (PL and lungs)” value was “significantly reduced”. Besides, in assay [2] (septic mice, PL streaked on TSA blood agar, colonies counted after 24 hours), the “local bacterial clearance (bacterial load in PL)” value is recorded as “without altering”. Besides, the “levels of the IL-6 cytokine in the serum” value in assay [2] (septic mice, sandwich ELISA) is given as “reduced”. Further, the “number of tissue-infiltrating neutrophils (PL)” value in assay [3] is given as “significantly reduced”. Also, in assay [4], the “neutrophil extravasation in response to fMLP” value was “dramatically reduced”. Moreover, in assay [5], the “location of neutrophils in the vessel wall (ultrastructural analysis)” value is “majority of neutrophils accumulated within the space between the endothelium and the basement membrane”.
